# Laboratory results published in patent US6086918A, “Oral peptide pharmaceutical products” (Unigene Laboratories, Inc., priority 1998, dated 2000).
# What was measured:
# [1] = Pharmacokinetics of oral calcitonin (10.5 mg) in humans; type: in vivo, human; conditions: 10 milligrams of salmon calcitonin alone administered to humans
# Experimental: The capsules were coated for 20 min with hydroxypropylmethylcellulose phthalate 50 in a pan coater and stored at 4° C. Fasted subjects were given 1 capsule followed by a glass of orange juice in the morning of the study. Samples of blood were taken 15 minutes before taking the capsules and at the indicated times after taking the calcitonin capsule. The concentration of calcitonin in blood was determined by competitive radioimmunoassay.
# [2] = Blood levels of salmon calcitonin after direct injection of active components into duodenum, ilium or colon; type: in vivo; conditions: active components injected directly into the duodenum
# Excerpt: The acid is believed to lower the local intestinal pH (where the active agent has been released) to levels below the optimal range for many intestinal proteases. This decrease in pH reduces the proteolytic activity of the intestinal proteases, thus affording protection to the peptide from potential degradation. The activity of these proteases is diminished by the temporarily acidic environment provided by the invention. It is preferred that sufficient acid be provided that local intestinal pH is lowered temporarily to 5.5 or below, preferably 4.7 or below and more preferably 3.5 or below. The sodium bicarbonate test described below (in the section captioned "the pH-Lowering Agent") is indicative of the required acid amount. […] The absorption enhancers of the invention synergistically promote peptide absorption into the blood while conditions of reduced proteolytic activity prevail.
# [3] = cited from earlier work
# [4] = Applicant's internal comparative tests of oral formulation, sCT versus PTH; type: in vivo; conditions: oral formulation of the invention
structure (smiles),measurement,setting,value
CC(C)C[C@H](NC(=O)[C@H](CCCCN)NC(=O)CNC(=O)[C@H](CC(C)C)NC(=O)[C@@H](NC(=O)[C@@H]1CSSC[C@H](N)C(=O)N[C@@H](CO)C(=O)N[C@@H](CC(N)=O)C(=O)N[C@@H](CC(C)C)C(=O)N[C@@H](CO)C(=O)N[C@@H]([C@@H](C)O)C(=O)N1)C(C)C)C(=O)N[C@@H](CO)C(=O)N[C@@H](CCC(N)=O)C(=O)N[C@@H](CCC(=O)O)C(=O)N[C@@H](CC(C)C)C(=O)N[C@@H](Cc1c[nH]cn1)C(=O)N[C@@H](CCCCN)C(=O)N[C@@H](CC(C)C)C(=O)N[C@@H](CCC(N)=O)C(=O)N[C@H](C(=O)N[C@@H](Cc1ccc(O)cc1)C(=O)N1CCC[C@H]1C(=O)N[C@@H](CCCNC(=N)N)C(=O)N[C@H](C(=O)N[C@@H](CC(N)=O)C(=O)N[C@H](C(=O)NCC(=O)N[C@@H](CO)C(=O)NCC(=O)N[C@H](C(=O)N1CCC[C@H]1C(N)=O)[C@@H](C)O)[C@@H](C)O)[C@@H](C)O)[C@@H](C)O [Salmon calcitonin],serum levels of salmon calcitonin,[1],no detectable serum levels
same,Tmax for blood levels of salmon calcitonin,[2],5 to 15 min
same,peak levels at which some patients report gastrointestinal distress,[3]; in vivo,≥ 200 picograms per milliliter
same,detectable blood levels after injection,[3]; injection at conventional dosages,no detectable blood levels more than two hours after injection
same,peak levels at which effective against osteoporosis,"[3]; nasal, 200 International units",≥ 10 picograms per milliliter
same,half-life,[3]; subcutaneous administration in man,20 to 40 min
same,peak serum concentration,"[3]; subcutaneous, 100 International units",about 250 picograms per milliliter
same,bioavailability compared with parathyroid hormone,[4],significantly exceeds that of parathyroid hormone
